Assay results from US11051515B2, “3-acyl-benzamides and their use as herbicides” (Bayer Aktiengesellschaft, priority 2017, dated 2021).

How the values were obtained:
LOLRI [1] = assay: Post-emergence action against LOLRI; assay type: in vivo, Lolium rigidum; settings: Lolium rigidum, 504 h, dosage 80 g/ha, visual assessment about 3 weeks after treatment vs untreated controls, read-out: Post-emergence action against LOLRI (herbicidal action in percent)
Summary of the method: (§1)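 Weeds grown in sandy loam in greenhouse, treated at one-leaf stage (2–3 weeks after sowing) with WP or EC formulations sprayed as aqueous suspension/emulsion at 600 to […] water with 0.2% wetting agent. Visual rating after about 3 weeks versus untreated controls, as % herbicidal action (100% = plants dead, 0% = like control).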

LOLRI [2] = assay: Pre-emergence action against LOLRI; assay type: in vivo, Lolium rigidum; settings: Lolium rigidum, 504 h, dosage 320 g/ha, scored visually after 3 weeks vs untreated controls, read-out: Pre-emergence action against LOLRI (herbicidal activity)
Summary of the method: (§2)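 Seeds sown in sandy loam in wood-fiber pots and covered with soil. Greenhouse growth; visual damage scored after 3 weeks versus untreated controls (100% = dead, 0% = like control).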

HORMU [3] = assay: Post-emergence action against HORMU; assay type: in vivo, Hordeum murinum; settings: dosage 80 g/ha
Protocol: Seeds of monocotyledonous and dicotyledonous weed and crop plants are laid out in sandy loam soil in wood-fiber pots, covered with soil and cultivated in a greenhouse under good growth conditions. 2 to 3 weeks after sowing, the test plants are treated at the one-leaf stage. The compounds of the invention, formulated in the form of wettable powders (WP) or as emulsion concentrates (EC), are then sprayed onto the green parts of the plants in the form of an aqueous suspension or emulsion at a water application rate equating to […], with addition of 0.2% wetting agent. After the test plants have been left to stand in the greenhouse under optimal growth conditions for about 3 weeks, the action of the preparations is assessed visually in comparison to untreated controls (herbicidal action in percent (%): 100% activity=the plants have died, 0% activity=like control plants). […] At the same time, inventive compounds leave Gramineae crops such as barley, wheat, rye, millet/Sorghum, corn or rice virtually undamaged when applied post-emergence, even at high active ingredient dosages. In addition, some substances are also harmless to dicotyledonous crops such as soya, cotton, oilseed rape, sugar beet or potatoes. Some of the compounds according to the invention have high selectivity and are therefore suitable for controlling unwanted vegetation in agricultural crops by the post-emergence method. The data of Tables B18 to B34 below illustrate, in an exemplary manner, the […] herbicidal action of the compounds according to the invention, the herbicidal activity being stated in percent.

VIOTR = assay: Post-emergence action against VIOTR; assay type: in vivo, Viola tricolor; settings: Viola tricolor, 504 h; post-emergence, dosage 80 g/ha
Summary of the method: as §1

ABUTH = assay: Pre-emergence action against ABUTH; assay type: in vivo, Abutilon theophrasti; settings: Abutilon theophrasti, 504 h; pre-emergence, dosage 320 g/ha, scored visually after 3 weeks vs untreated controls; read-out: Pre-emergence action against ABUTH (herbicidal activity)
Summary of the method: as §2

HORMU [4] = assay: Pre-emergence action against HORMU; assay type: in vivo, Hordeum murinum; settings: Hordeum murinum, 504 h, Dosage 320 g/ha
Summary of the method: as §2

STEME = assay: Post-emergence action against STEME; assay type: in vivo, Stellaria media; settings: Stellaria media, 504 h; post-emergence, dosage 80 g/ha
Summary of the method: as §1

POLCO = assay: Pre-emergence action against POLCO; assay type: in vivo, Polygonum convolvulus; settings: Fallopia convolvulus, 504 h; Dosage 320 g/ha, pre-emergence
Summary of the method: as §2

VERPE = assay: Pre-emergence action against VERPE; assay type: in vivo, Veronica persica; settings: Veronica persica, 504 h; Dosage 320 g/ha, pre-emergence
Summary of the method: as §2

DIGSA [5] = assay: Pre-emergence action against DIGSA; assay type: in vivo, Digitaria sanguinalis; settings: dosage 320 g/ha, scored visually after 3 weeks vs untreated controls
Summary of the method: as §2

AVEFA [6] = assay: Pre-emergence action against AVEFA; assay type: in vivo, Avena fatua; settings: Avena fatua, 504 h, dosage 320 g/ha, scored visually after 3 weeks vs untreated controls, read-out: Pre-emergence action against AVEFA (herbicidal activity)
Summary of the method: as §2

AVEFA [7] = assay: Post-emergence action against AVEFA; assay type: in vivo, Avena fatua; settings: Avena fatua, 504 h; post-emergence, dosage 80 g/ha, visual assessment about 3 weeks after treatment vs untreated controls; read-out: Post-emergence action against AVEFA (herbicidal action in percent)
Summary of the method: as §1

DIGSA [8] = assay: Post-emergence action against DIGSA; assay type: in vivo, Digitaria sanguinalis; settings: dosage 80 g/ha, visual assessment about 3 weeks after treatment vs untreated controls
Summary of the method: as §1

SMILES	pest or weed control at 80 g/ha (LOLRI [1])	pest or weed control at 320 g/ha (LOLRI [2])	Post-emergence action against HORMU (HORMU [3])	pest or weed control at 80 g/ha (VIOTR)	pest or weed control at 320 g/ha (ABUTH)	pest or weed control at 320 g/ha (HORMU [4])	pest or weed control at 80 g/ha (STEME)	pest or weed control at 320 g/ha (POLCO)	pest or weed control at 320 g/ha (VERPE)	Pre-emergence action against DIGSA (herbicidal activity) (DIGSA [5])	pest or weed control at 320 g/ha (AVEFA [6])	pest or weed control at 80 g/ha (AVEFA [7])	Post-emergence action against DIGSA (herbicidal action in percent) (DIGSA [8])
Cn1nnnc1NC(=O)c1ccc(C(F)(F)F)c(C(=O)C2CC2)c1C1CC1 [1-233]	90%	100%	80	90%	100%	100%	90%	80%	100%	100%	100%	90%	100%
CSc1c(C(=O)Nc2nnnn2C)ccc(C(F)F)c1C(=O)C1CC1 [1-67]	100%	100%	100	100%	100%	80%	100%	100%	100%	–	80%	100%	–
Cn1nnnc1NC(=O)c1ccc(C(F)F)c(C(=O)C2CC2)c1Cl [1-168]	100%	100%	100	100%	100%	100%	100%	90%	100%	–	100%	100%	–
